Measured values as given in patent US20080161288A1, “COMPOUNDS” (Pfizer Inc., priority 2006, published 2008).

Columns and labels:
[1] = biological target: T1, porcine beta-2 adrenoceptor (Sus scrofa, UniProt Q28997); test: cAMP assay in CHO cells transfected with the porcine beta-2 adrenoceptor; type: cell-based; settings: cAMP (DiscoveRx Hit Hunter cAMP II) in CHO cells transfected with porcine beta-2 adrenoceptor, 30 minutes with compound, 0.5 mM IBMX
T1 construct: expressed in transfected cells; host or cells: CHO cells
Outline: (§1)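 Transfected CHO cells were preincubated 30 min with 0.5 mM IBMX in PBS. Compound (5×10^−12 to 10^−5 M) was then applied for 30 min at 37 °C, 5% CO2, followed by cAMP measurement with an enzyme-fragment complementation kit. Duplicates, EC50 from curve fitting.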

[2] = biological target: T2, bovine beta-2 adrenoceptor (Bos taurus, UniProt Q28044); test: cAMP assay in CHO cells transfected with the bovine beta-2 adrenoceptor; type: cell-based; settings: cAMP (DiscoveRx Hit Hunter cAMP II) in CHO cells transfected with bovine beta-2 adrenoceptor, 30 minutes with compound, 0.5 mM IBMX
T2 construct: expressed in transfected cells; host or cells: CHO cells
Outline: as §1

T2 sequence (Q28044 whole entry): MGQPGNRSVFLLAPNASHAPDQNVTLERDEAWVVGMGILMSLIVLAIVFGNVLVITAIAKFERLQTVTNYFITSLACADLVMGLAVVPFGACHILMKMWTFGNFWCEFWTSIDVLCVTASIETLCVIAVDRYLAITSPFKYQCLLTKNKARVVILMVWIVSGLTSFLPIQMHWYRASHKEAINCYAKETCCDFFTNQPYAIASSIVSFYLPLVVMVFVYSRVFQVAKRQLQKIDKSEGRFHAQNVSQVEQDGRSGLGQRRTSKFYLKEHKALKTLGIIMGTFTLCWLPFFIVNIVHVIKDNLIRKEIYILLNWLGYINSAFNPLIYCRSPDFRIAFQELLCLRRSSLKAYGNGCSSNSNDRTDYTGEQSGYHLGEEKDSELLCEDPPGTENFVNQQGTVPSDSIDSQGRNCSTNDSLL
T1 sequence (Q28997 whole entry): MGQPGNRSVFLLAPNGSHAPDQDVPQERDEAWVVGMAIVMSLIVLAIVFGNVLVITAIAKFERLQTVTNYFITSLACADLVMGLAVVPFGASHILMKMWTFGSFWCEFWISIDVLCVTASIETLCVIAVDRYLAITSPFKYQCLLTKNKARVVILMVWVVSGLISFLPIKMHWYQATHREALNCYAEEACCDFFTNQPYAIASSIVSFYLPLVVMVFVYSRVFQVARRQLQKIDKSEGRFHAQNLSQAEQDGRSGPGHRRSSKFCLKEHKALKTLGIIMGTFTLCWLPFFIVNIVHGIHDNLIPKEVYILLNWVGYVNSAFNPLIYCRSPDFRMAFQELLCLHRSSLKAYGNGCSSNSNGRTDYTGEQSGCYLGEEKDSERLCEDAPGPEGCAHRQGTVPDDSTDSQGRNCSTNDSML

Row | SMILES | EC50 [1] [nM] | EC50 [2] [nM]
1 | CC(/C=C/c1ccccc1NS(C)(=O)=O)N[C@@H]1CCn2c(=O)[nH]c3cccc(c32)[C@H]1O (mixture of isomers) [Example 42, N-{2-[3-{[7-Hydroxy-2-oxo-1,2,4,5,6,7-hexahydroimidazo[4,5,1-jk][1]benzazepin-6-yl]amino}but-1-en-1-yl]phenyl}methanesulfonamide] | 104 | 258
2 | CC(CCc1cc(Cl)ccc1O)N[C@@H]1CCn2c(=O)[nH]c3cccc(c32)[C@H]1O (single isomer, unassigned) [Example 19a, 6-{[3(5-Chloro-2-hydroxyphenyl)-1-methylpropyl]amino}-7-hydroxy-4,5,6,7-tetrahydroimidazo[4,5,1-jk][1]benzazepin-2(1H)-one] | 0.9 | 0.6
3 | CC(CCc1ccc(O)cc1)N[C@@H]1CCn2c(=O)[nH]c3cccc(c32)[C@H]1O (single isomer, unassigned) [Example 2c, 7-Hydroxy-6-{[3-(4-hydroxyphenyl)-1-methylpropyl]amino}-4,5,6,7-tetrahydroimidazo[4,5,1-jk][1]benzazepin-2(1H)-on] | 2.9 | 13.1
4 | CC(CCc1cc(F)ccc1O)N[C@@H]1CCn2c(=O)[nH]c3cccc(c32)[C@H]1O (single isomer, unassigned) [Example 7b, 6-{[3-(5-Fluoro-2-hydroxyphenyl)-1-methylpropyl]amino}-7-hydroxy-4,5,6,7-tetrahydroimidazo[4,5,1-jk][1]benzazepin-2(1H)-one] | 0.5 | 0.3
5 | CC(/C=C/c1ccccc1F)N[C@@H]1CCn2c(=O)[nH]c3cccc(c32)[C@H]1O (single isomer, unassigned) [Example 40a, 6-{[3-(2-Fluorophenyl)-1-methylprop-2-en-1-yl]amino}-7-hydroxy-4,5,6,7-tetrahydroimidazo[4,5,1-jk][1]benzazepin-2(1H)-one] | 65.1 | 242

The remaining lines, values ahead:

Row | EC50 [1] [nM] | EC50 [2] [nM] | SMILES
6 | 28.9 | 33.8 | C[C@H](CCc1cccc(N)c1)N[C@@H]1CCn2c(=O)[nH]c3cccc(c32)[C@H]1O (single isomer, unassigned) [Example 46, 6-{[3-(3-Aminophenyl)-1-methylpropyl]amino}-7-hydroxy-4,5,6,7-tetrahydroimidazo[4,5,1-jk][1]benzazepin-2(1H)-one]
7 | 31.5 | 74.7 | CC(CCc1cccc(NS(C)(=O)=O)c1)NC1CCn2c(=O)[nH]c3cccc(c32)C1O (single isomer, unassigned) [Example 65]
8 | 11 | 3.6 | CC(CCc1ccccc1NC(=O)C(F)(F)F)N[C@@H]1CCn2c(=O)[nH]c3cccc(c32)[C@H]1O (single isomer, unassigned) [Example 51, 2,2,2-Trifluoro-N-{2-[3-{[7-hydroxy-2-oxo-1,2,4,5,6,7-hexahydroimidazo[4,5,1-jk][1]benzazepin-6-yl]amino}butyl]phenyl}acetamide]
